In patent EP1785723A1, “Micro calorimetric analysis of mammalian cell susceptibility to agents that affect cell growth, metabolism and immune response, and use of micro calorimetric analysis in a transplantation test” (Stratos Bio Ltd., priority 2005, dated 2007):

Legend:
[1] = test system: respiring E.coli; experiment: Flow microcalorimetry, p-t curves of respiring cells in glucose buffer; format: cell-based; settings: for Effect on power: neomycin alone added to respiring E.coli, Fig. 16; for Effect on p-t curve / power output: Polymyxin B alone, concentration not stated, Fig. 15
Method: For a typical calorimetric incubation the medium was passed through the calorimetric vessel at the same flow rate and temperature as those used in the experiment to establish a steady baseline deflection. The following operations then took place to a strict timetable. The liquid nitrogen stored ampoule was thawed at 38°C for 3 min and then stirred for 20 sec on a whirlimixer. The bacterial suspension (0.5-1.5ml) volumes was inoculated into the medium (100ml) two minutes after completion of thawing. A Gilson automatic pipette was used for inoculation. The calorimeter inlet flow-line was placed in the incubation medium 30 seconds after inoculation. The flowing incubation medium reached the calorimetric vessel two min after inlet flow-line insertion. At this time the recording of the p-t curves was started. Eight min after inoculation the outflow from the calorimeter was returned to the fermenter (after the "baseline" medium had run to waste but before the inoculated medium ran to waste) thus making a closed system. Aeration was started as soon as the inlet tube was inserted in the fermenter. Microbiological purity of the culture was checked by plating out a sample of the culture at the end of each incubation on nutrient agar (lab M).
The output of calorimetric experiments is a plot of power (energy evolution per unit of time) as a function of time. The unit of power (p) is the Watt (W) and the unit of time is the hour (h). In some experiments seconds (s) were used as time unit.
E.coli was suspended in 10% DMSO prior to freezing and the viable counts were for batch 1: pre-freeze: 4.0 ± 0.6_ x 10^10 cfu/ml and post -freeze 2.0 ± 0.44 x 10^10 cfu/ml and for batch 2: pre-freeze: 3.45 ± 0.58 x 10^10 cfu/ml and post-freeze 2.93 ± 0.43 x 10^10 cfu/ml. The freezing rate for both batches was 20°C/min the survival rate was 50% for batch 1 and 85% for batch 2. These differences may have been due to batch 1 being kept for 24h at 4°C before being frozen.
The respiration experiments were carried out in glucose buffer at different pH. The respiration curves obtained from batch 1 (inoculum 2 x 10^10 cfu/ml) and batch 2 Inoculum 3.2 x 10^10 cfu/ml) were essentially similar and a mean was used as a reference). The respiration experiments were carried out at pH 7 for polymyxin and Znbacitracin and at pH 8 for neomycin. No differences in p-t control curves could be observed at pH 7 or pH 8.
The p-t curves rose and reached a plateau as has been observed for respiration of yeasts and some 20 min later fell to a lower plateau value. Prior incubation of the cells in the buffered glucose for periods up to 20 min before presentation to the calorimeter could reduce or entirely remove this effect.

[2] = test system: Bacillus Pumilus; experiment: Flow microcalorimetry, p-t curves of growing culture with antibiotics and mixtures; format: cell-based
Description: To the vertical face of the vessel close to its base, equidistantly spaced around the circumference, ports were fitted for an oxygen electrode and for sampling/inoculation. The fermenter was closed with a flat flanged glass lid which had five ports accommodating respectively, gas inlet tube, gas exhaust (via air condenser), inlet and outlet flow-lines to and from the calorimeter. The fermenter and lid was sealed with a p.t.f.e. gasket and clamped with a metal clip. The fermenter was placed on a magnetic stirring unit in a water jacket which allowed circulation of the thermostatically controlled water at 30°C or 37°C. The fermenter which contained a Teflon coated magnetic stirring bar, was sterilised by autoclaving.
For a typical calorimetric incubation the medium was passed through the calorimetric vessel at the same flow rate and temperature as those used in the experiment to establish a steady baseline deflection. The following operations then took place to a strict timetable. The liquid nitrogen stored ampoule was thawed at 38°C for 3 min and then stirred for 20 sec on a whirlimixer. The bacterial suspension (0.5-1.5ml) volumes was inoculated into the medium (100ml) two minutes after completion of thawing. A Gilson automatic pipette was used for inoculation. The calorimeter inlet flow-line was placed in the incubation medium 30 seconds after inoculation. […]

[3] = POLB 6.3 ug/ml, respiration, pH 7

Row | Compound | Linear dose-response range ([1]; NEO, respiration, pH 8) [µg/mL] | Effect on heat output ([1]; all concentrations of Neomycin, respiring E.coli) | Effect on power ([1]; listed as Neomycin) | Effect on power ([1]; listed as neomycin) | Range of linear relationship between dose and the reciprocal of increase in response from the control curve ([1]; neomycin, respiring E.coli) [µg/mL] | Effect on power output in growth studies ([2]; concentration not given) | Observed effect on p-t curves [1, 3] | Time of return of p-t curve to baseline [1, 3] [h] | Effect on p-t curve / power output ([1]; listed as Polymyxin B) | Effect on p-t curve / power output ([1]; listed as polymyxin B) | Time within which growth was inhibited completely ([2]; 20ug/ml POLB, bacterial concentration printed '0?' as % of p-t curve, pH 8.00)
1 | NC[C@@H]1O[C@H](O[C@H]2[C@@H](O)[C@H](O[C@@H]3[C@@H](O)[C@H](N)C[C@H](N)[C@H]3O[C@H]3O[C@H](CN)[C@@H](O)[C@H](O)[C@H]3N)O[C@@H]2CO)[C@H](N)[C@@H](O)[C@@H]1O [NEO, neomycin] | 10 to 100 | caused an increased heat output | caused an increase in power output | caused an increase in power | 20 to 100 | increase in power output |  |  |  |  | 
2 | Polymyxin B [POLB] |  |  |  |  |  |  | Reduced height of p-t curve initially | ≤ 1 | reduced the initial peak height and thereafter the p-t curve returned to baseline | severe reduction in power output followed by a return to baseline | Within 9 hours growth was inhibited completely
